One data set concerns LINC02228 (HIKER). In words: KD efficiency of LINC02228 (HIKER) by ASO, qPCR. Type of data set: cell-based, human. The note with it: CMS cells. As to the method: Locked nucleic acids (LNAs) targeting HIKER/LINC02228 and LINC00431 were designed and synthesized by Exiqon. The most efficient ASO for each LNA was initially tested in the pilot experiment with and without transfection reagent (Lipofectamine 3000. Life Technologies. L3000-008) in a dose-response experiment at a concentration of 10 nM, 25 nM, 50 nM, and 100 nM. The uptake and the effect of ASO were monitored by qPCR at various stages (iPSC stage and CD34+ cells isolated from EBs). For both lncRNAs, the optimal delivery for all the stages was at the 50 nM concentration without the transfection reagent.
(§1) CD34^+ cells were isolated from iPSC-derived EBs as follows. After 7 days of differentiation, EBs were harvested by spinning at 400 g for 10 minutes. After centrifugation, EBs were dissociated into single cells using Accutase treatment for 10 minutes and then filtered through a 60 μm cell strainer (Falcon). CD34^+ cells were isolated from this cell suspension using EasySep Human CD34 Positive Selection Kit 11 ([…] Technologies, 17856) per the manufacturer's instructions. These iPSC-derived CD34+ cells were used in subsequent qPCR and colony-forming assays.
On the technique in general: In qPCR the cycle at which signal appears reflects the starting amount.

A further data set has as its system Monge's disease. The settings on record: patients; cited from earlier work.
In another data set the test system is CMS cells. In words: BFU-E colony forming assay with CK2 inhibitors, iPSC-derived CD34+ cells under hypoxia. Type of data set: cell-based, human. The settings on record: 5% O2, 14 days, TBB 25 μM, 50 µM, 100 μM, CX4945 2.5, 5, 10 μM. As to the method:
as §1
CD34^+ cells used in this assay were derived from iPSC-generated EBs as described herein. CD34^+ cells were plated at a density of 10^5 cells per 35 mm dish combined with MethoCult H4034 Optimum Media ([…] Technologies, 04044) and 2% FBS. Dishes were incubated at 37° C. in an incubator with 5% CO2 and 5% O2 for 14 days, at which time colonies were scored for BFU-E and CFU-granulocyte, erythrocyte, monocyte, megakaryocyte (CFU-GEMM).
TBB (catalog ab120988) and CX4945 (catalog S2248) were purchased from Abcam and Selleckcam, respectively. Dose-response experiments were performed with the inhibitors using the following concentrations in the colony forming assays using iPSC-derived CD34^+ cells as described herein: TBB (25 μM, 50 µM, and 100 μM) and CX4945 (2.5 μM, 5 μM, and 10 μM).

Another data set relates to zebrafish embryos. In words: Hemoglobin staining (o-dianisidine) of zebrafish embryos injected with csnk2b morpholino. The format is in vivo, Zebrafish (Danio rerio). The note with it: 2 dpf. The protocol:
Zebrafish (Danio rerio) were raised in a circulating aquarium system on a 14-hour light/10-hour dark cycle at 28.5° C., following standard husbandry procedures.
The morpholino antisense oligo (MO) 5′-[…]-3′ (SEQ ID NO: 23) was synthesized to block the translation initiation of csnk2b, and the 5-mismatch oligo 5′-[…]-3′ (SEQ ID NO: 24) was synthesized as a specificity control (Gene Tools). For synthesizing CSNK2B rescue mRNA that is resistant to the translation blocking MO, the full-length csnk2b coding sequence with 4 base pairs of silent mutations in the MO recognition region was cloned into the pCS2-vector (Azenta Life Sciences), in which the first 24 base pairs of the CSNK2B coding sequence became 5′-[…]-3′ (SEQ ID NO: 25). The csnk2b capped mRNA was synthesized using the mMESSAGE mMACHINE Kit (Ambion, AM1340). Microinjection was performed on WT AB embryos at the 1- to 2-cell stages.
Embryos at 2 dpf were dechorionated and anesthetized with 0.016% tricaine (Fluka, A5040), followed by a 15-minute incubation in 0.6 mg/mL o-dianisidine solution (SigmaAldrich, D9143). This solution was prepared in 0.65% H2 O2 (EMD, HX0647-3), 40% ethanol (KOPTEC, 89125), and 10 mM sodium acetate (Fisher Chemical, S210-500) at room temperature. Stained embryos were washed twice with 1×PBS (Gibco, Thermo Fisher Scientific, 14200166) and then fixed in 4% paraformaldehyde (PFA) (SigmaAldrich, P6148). Hemoglobin signal was observed under a light microscope and quantified according to the area and intensity in the heart and common cardinal vein; embryos were categorized into normal, medium, and low hemoglobin levels.

Entries after “also recorded” stand apart in the source; their conditions may differ.

For the molecule “ASO-1: LNA gapmer ASO targeting HIKER/LINC02228, SEQ ID NO 1: G*G*T*T*G*C*T*T*T*C*A*G*G*C*C*C*C*T*T*A (antisense GGTTGCTTTCAGGCCCCTTA; all phosphorothioate, sugars by position and methylation of C not given here; LNA gapmer)”, in the data set with LINC02228 (HIKER), the “KD efficiency, ranking among the 3 ASOs” value is “highest KD efficiency”.
For the molecule `CC(=O)Nc1nnc(S(N)(=O)=O)s1` [Acetazolamide], the “clinical response in Monge's disease” value in the data set on Monge's disease was “mild response and relief of symptoms”.
In the case of `Brc1c(Br)c(Br)c2n[nH]nc2c1Br` [TBB], in the data set with CMS cells, the “BFU-E colonies (erythroid colony numbers)” value is listed as “significant changes were observed in the colony numbers in a dose-dependent manner; also recorded: decreases BFU-E colonies in CMS cells in a dose-dependent manner”.
For “MO: morpholino antisense oligo 5′-CGACACTTCCTCTGAGCTACTCATG-3′ (SEQ ID NO: 23) blocking translation initiation of csnk2b (all phosphorodiamidate morpholino (PMO))”, the hemoglobin levels entry with zebrafish embryos (1 ng dose) was “minimal impact on hemoglobin levels”. Also, in the data set with zebrafish embryos (3 ng and 5 ng MO dosage), the hemoglobin versus controls result was “remarkable decrease in hemoglobin”. The “morphants showing moderate or low iron staining” value in the data set with zebrafish embryos (3 ng and 5 ng MO) is given as “more than 97%”. Further, the “hemoglobin, dose dependence” value in the data set with zebrafish embryos (1, 3 or 5 ng) is recorded as “dose-dependent loss of hemoglobin”.

Values taken from patent US20260193659A1, “METHODS FOR TREATING MONGE'S DISEASE” (The Regents of the University of California, priority 2022, published 2026).
